# Patent US8765953B2, “Compounds and methods for the treatment of pain and other diseases” (Aquilus Pharmaceuticals, Inc., priority 2008, dated 2014)
# What was measured:
# [1] = In-vitro mouse microsomal stability; assay type: in vitro ADME; details: mouse microsomes, 1 microMolar compound, at T = 60 minutes
# Protocol: Human and mouse microsomal stability was determined for select compounds following the method of Houston (Houston, J. B; Biochem. Pharmacol. 47, (1994),1469).
# 1 μM concentration of compound and separate human and mouse microsomes (0.3 mg/mL, BD bioscience) were used in the in-vitro assay. To ensure proper energy supply for microsomal degradation of compound, an energy regenerating system comprised of 100 mM potassium phosphate, 2 mM NADPH, 3 mM MgCl2, pH=7.4. and the microsomal protein is added to each sample and the resulting suspension is then incubated in duplicate for 60 min at 37° C. in a rotary shaker. A control is run for each test agent in duplicate omitting NADPH to detect NADPH-free degradation. At T=0 and T=60 min., an aliquot is removed from each experimental and control reaction and then mixed with an equal volume of ice-cold Stop Solution (consisting of 0.3% acetic acid in acetonitrile containing haloperidol and diclofenac as internal standards). Stopped reactions are then incubated for at least ten minutes at −20° C., and an additional volume of water is then added. The samples are then centrifuged to remove precipitated protein, and the supernatants are then analyzed by LC-MS/MS to determine the percentage of compound remaining. The LC-MS/MS system used was an Agilent 6410 mass spectrometer coupled with an Agilent 1200 HPLC and a CTC PAL chilled autosampler, all controlled by MassHunter software (Agilent), or an ABI2000 mass spectrometer coupled with an Agilent 1100 HPLC and a CTC PAL chilled autosampler, all controlled by Analyst software (ABI). After separation on a C18 reverse phase HPLC column (Agilent, Waters, or equivalent) using an acetonitrile-water gradient system, peaks were analyzed by mass spectrometry (MS) using ESI ionization in MRM mode.
# [2] = test system: spinal nerve ligation (SNL) mouse model; experiment: Intrathecal (i.t.) SNL-mouse model of neuropathic pain, von Frey mechanical allodynia; assay type: in vivo, FVB male mice
# Text: (§1) To measure the neuropathic pain inhibiting affects of the MMP inhibitors of the present invention, the spinal nerve ligation (SNL) mouse model was run on a select number of compounds. This model which began with the work of Bennet and coworkers (Bennet, G. J. et al. Pain, 33, (1988), 87-107) and was optimized by Kim and Chung (Kim, S. H.; Chung, J. M. Pain, 50, (1992), 355-363) entails first, under magnification, the removal of one-third of the transverse process and then identifying and then dissecting free the L5 spinal nerve from the adjacent L4 spinal nerve in the mouse. The L5 spinal nerve is then tightly ligated using 6.0 silk suture. The nerve injury leads to hyperalgesia which manifests itself by enhanced responses to mechanical, heat and/or cooling stimuli. In this case, mechanical hyperalgesia is tested via Von Frey monofilaments in which filaments of varying thicknesses and bending force are individually applied to the plantar surface of the foot of the mouse. The threshold force necessary for paw withdrawal decreases dramatically after the nerve surgery. Potent pain inhibitors will reverse this affect resulting in greater force needing to be applied to cause the rodent paw to withdrawal.
# Following preoperative baseline (Day −2) paw threshold measurement, FVB male mice were subjected to SNL injury (Day −1). The next day (Day 0) after SNL surgery, the animals were tested for post-operative baseline threshold measurements for mechanical allodynia; and the animals were then randomly assigned to one of 3 treatment groups (see Table 9). Over the course of the study, paw withdrawal threshold of these animals was measured in response to mechanical stimulation using the von Frey Monofilament Test.
# To avoid systemic effects of the MMP inhibitors, the MMP inhibitors of the present invention were delivered into the cerebral spinal fluid (CSF) space around lumbosacral spinal cord via intrathecal (i.t.) administration, with the idea of targeting MMPs in the DRG, spinal cord, and spinal CSF. Intrathecal MMP inhibitor administration could then target not only spinal cord cells but also DRG cells. Each intrathecal (i.t.) injection was carried out according to the technique of Hylden and Wilcox (Hylden J L, Wilcox G L. Eur. J. Pharmacol., 67, (1980), 313-6) 5.2 mg of each of the MMP inhibitors were first dissolved in 140 microliters of DMSO and then put into 1260 microliters of 0.5% hydroxypropyl cellulose (HPC) in water to make a fine suspension composed of compound in 10% DMSO-0.5% hydroxypropyl cellulose. 10 microliters of the mixture was injected into the intrathecal space of male FVB mice (weighing 22-25 grams each and obtained from the Jackson Laboratories, Bar Harbor, Me.), by lumbar puncture in a volume of 10 μl/mouse using a Hamilton microsyringe via a 30 gauge needle inserted between lumbar vertebrae 5 and 6. In brief, each animal was held firmly by the pelvic girdle in one hand, while the needle was inserted into the tissue on the right side of the L5 or L6 spinous process. The needle was moved forward and slipped into the groove between the spinous process and transverse process and gently moved forward to the intervertebral space at ˜10° angle. As the needle was inserted (˜0.5 cm) within the vertebral column a tail flick was evident, and the solution was then injected.
# Tactile Allodynia Test. Mechanical allodynia was measured using the calibrated von Frey filaments (Semmes-Weinstein monofilaments; Stoelting, Wood Dale, Ill., U.S.A.). The plantar surface of the left injured paw of each animal was tested as described by Chaplan et al. (Journal of Neuroscience Methods, 53, (1994), 55-63). The Fifty percent paw withdrawal threshold response was determined by sequentially increasing or decreasing the stimulus strength according to the “up-down method” of Dixon (Annual Review Pharmacology Toxicology, 20, (1980), 441-462). […]
# [3] = test system: spinal nerve ligation (SNL) mouse model; experiment: Intraperitoneal (i.p.) SNL-mouse model of neuropathic pain, von Frey mechanical allodynia; assay type: in vivo
# Text: as §1
# Tactile Allodynia Test. Mechanical allodynia was measured using the calibrated von Frey filaments (Semmes-Weinstein monofilaments; Stoelting, Wood Dale, Ill., U.S.A.). The plantar surface of the left injured paw of each animal was tested as described by Chaplan et al. (Journal of Neuroscience Methods, 53, (1994), 55-63). The Fifty percent paw withdrawal threshold response was determined by sequentially increasing or decreasing the stimulus strength according to the “up-down method” of Dixon (Annual Review Pharmacology Toxicology, 20, (1980), 441-462). For mice, […] von Frey filaments were used, with approximately equal logarithmic incremental bending forces (von Frey number: 1.65, 2.36, 2.44, 2.83, 3.22, 3.61, 3.84, 4.08, and 4.17; equivalent to 0.005, 0.02, 0.03, 0.07, 0.17, 0.41, 0.69, 1.20, and 1.48 g force, respectively).
# Prior to testing, each animal was placed in a suspended clear plastic chamber with a wire mesh bottom and acclimated for 15 minutes. Testing was initiated with the 0.07 g (handle marking of 2.83) applied perpendicularly to the plantar surface of the affected hind paw; each filament was applied with enough pressure to cause a buckle effect. The absence of a paw lifting/withdrawal response after 6 s prompted the use of the next higher weight filament. Paw withdrawal, indicating a positive response, prompted the use of a weaker filament. After the initial positive response (i.e., paw withdrawal), the testing continued for four additional measurements, and was used to calculate the response threshold. Four consecutive positive responses received a score of 0.001 g, and five consecutive negative responses (i.e., no paw withdrawal) received a score of 1.5 g.
# Analyses for Tactile Allodynia Testing. The 50% paw withdrawal threshold was calculated (PWT; Luo and Calcutt, J. Pharmacology Experimental Therapeutics, 303(3), (2002), 1199-1205; Chaplan et al. Journal of Neuroscience Methods, 53, (1994), 55-63) using the formula: 10(Xf+κδ)/10,000 where Xf is the final von Frey filament used (log units), κ is a value that analyzes the response pattern (taken from the table published by Chaplan et al., 1994), and δ is the mean difference between stimuli (log units).
# Except for the mode of administration, number of mice/group and the number of injections and amount of compound per injection, the rest of the study was done in the same manner (in regards to the surgeries and tactile allodynia testing and analysis) as Experiment 110. 3.2 mg of each of the MMP inhibitors #5 and #118 were dissolved in 320 microliters of DMSO. To the solution was then added 32 microliters of Tween 80, followed by 2850 microliters of phosphate buffered saline (PBS). This gave a final concentration of 10% DMSO, 1% Tween and 1 mg/ml compound. […]
# mechanical nociception = details: in vivo; cited from earlier work
# humans = humans (S-3304: animals or man); cited from earlier work
# MMP-12 = MMP-12 (Homo sapiens, UniProt P39900); details: cited from earlier work
# MMP-2 = target: T1, MMP-2 (Homo sapiens, UniProt P08253); details: cited from earlier work
# T1 sequence (P08253 110-660): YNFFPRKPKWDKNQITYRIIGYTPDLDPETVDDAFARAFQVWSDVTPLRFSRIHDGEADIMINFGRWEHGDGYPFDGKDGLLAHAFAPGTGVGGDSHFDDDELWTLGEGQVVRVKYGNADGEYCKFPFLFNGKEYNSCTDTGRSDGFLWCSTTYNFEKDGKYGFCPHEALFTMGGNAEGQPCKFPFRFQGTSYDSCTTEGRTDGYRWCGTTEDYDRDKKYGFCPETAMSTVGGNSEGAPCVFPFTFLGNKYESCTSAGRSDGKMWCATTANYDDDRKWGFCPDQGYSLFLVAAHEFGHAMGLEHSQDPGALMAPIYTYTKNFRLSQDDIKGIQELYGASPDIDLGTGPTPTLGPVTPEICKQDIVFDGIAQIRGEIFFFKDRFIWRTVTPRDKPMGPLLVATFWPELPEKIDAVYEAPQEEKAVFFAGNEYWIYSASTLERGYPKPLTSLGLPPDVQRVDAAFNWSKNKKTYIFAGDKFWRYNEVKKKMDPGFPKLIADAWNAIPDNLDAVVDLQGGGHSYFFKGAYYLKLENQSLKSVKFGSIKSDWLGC
# MMP-8 = MMP-8 (Homo sapiens, UniProt P22894); details: cited from earlier work
# MMP-13 = MMP-13 (Homo sapiens, UniProt P45452); details: cited from earlier work
# MMP-9 = MMP-9 (Homo sapiens, UniProt P14780); details: cited from earlier work
# MMP-3 = MMP-3 (Homo sapiens, UniProt P08254); details: cited from earlier work
# MMP-7 = target: T2, MMP-7 (Homo sapiens, UniProt P09237); details: cited from earlier work
# T2 sequence (P09237 95-267): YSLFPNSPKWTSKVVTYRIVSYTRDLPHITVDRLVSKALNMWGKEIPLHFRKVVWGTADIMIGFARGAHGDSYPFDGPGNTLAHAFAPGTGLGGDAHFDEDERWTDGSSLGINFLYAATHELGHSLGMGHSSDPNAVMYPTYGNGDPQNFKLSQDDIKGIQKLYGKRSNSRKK
# rat formalin test = details: cited from earlier work
# [4] = test system: L5 spinal nerve ligation (SNL) neuropathic pain model; details: in vivo; cited from earlier work
# [5] = i.p. 100 μl/mouse daily (approx. 3.3 mg/Kg), day 1-5
# MMP-8, sequence (P22894 101-467, species assumed): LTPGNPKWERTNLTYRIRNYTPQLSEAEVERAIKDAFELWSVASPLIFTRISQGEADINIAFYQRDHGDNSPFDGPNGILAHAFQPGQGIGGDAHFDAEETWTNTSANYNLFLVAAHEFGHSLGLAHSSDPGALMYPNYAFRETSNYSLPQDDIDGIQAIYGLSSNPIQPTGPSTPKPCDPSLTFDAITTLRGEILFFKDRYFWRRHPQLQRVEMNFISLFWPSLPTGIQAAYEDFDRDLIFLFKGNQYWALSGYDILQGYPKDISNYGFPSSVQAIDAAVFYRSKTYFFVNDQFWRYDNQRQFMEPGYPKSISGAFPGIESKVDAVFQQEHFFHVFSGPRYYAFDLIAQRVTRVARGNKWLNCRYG
# MMP-9, sequence (P14780 94-707, species assumed): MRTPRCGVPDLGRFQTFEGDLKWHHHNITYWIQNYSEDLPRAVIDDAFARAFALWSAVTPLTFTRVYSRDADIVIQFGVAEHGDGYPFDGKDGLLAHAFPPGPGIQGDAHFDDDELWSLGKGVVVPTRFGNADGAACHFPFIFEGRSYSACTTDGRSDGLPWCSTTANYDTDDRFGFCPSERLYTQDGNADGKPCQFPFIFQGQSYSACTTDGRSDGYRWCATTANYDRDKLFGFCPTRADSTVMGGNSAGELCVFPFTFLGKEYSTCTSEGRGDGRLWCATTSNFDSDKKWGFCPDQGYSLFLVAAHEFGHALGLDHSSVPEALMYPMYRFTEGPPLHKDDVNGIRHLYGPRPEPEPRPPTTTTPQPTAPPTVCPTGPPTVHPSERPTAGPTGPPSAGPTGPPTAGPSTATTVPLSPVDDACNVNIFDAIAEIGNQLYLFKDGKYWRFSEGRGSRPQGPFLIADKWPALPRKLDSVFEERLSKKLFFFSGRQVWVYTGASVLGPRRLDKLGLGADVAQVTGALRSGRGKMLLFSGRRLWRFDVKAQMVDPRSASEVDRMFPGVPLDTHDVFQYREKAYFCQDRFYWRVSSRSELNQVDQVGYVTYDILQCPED
# MMP-3, sequence (P08254 100-477, species assumed): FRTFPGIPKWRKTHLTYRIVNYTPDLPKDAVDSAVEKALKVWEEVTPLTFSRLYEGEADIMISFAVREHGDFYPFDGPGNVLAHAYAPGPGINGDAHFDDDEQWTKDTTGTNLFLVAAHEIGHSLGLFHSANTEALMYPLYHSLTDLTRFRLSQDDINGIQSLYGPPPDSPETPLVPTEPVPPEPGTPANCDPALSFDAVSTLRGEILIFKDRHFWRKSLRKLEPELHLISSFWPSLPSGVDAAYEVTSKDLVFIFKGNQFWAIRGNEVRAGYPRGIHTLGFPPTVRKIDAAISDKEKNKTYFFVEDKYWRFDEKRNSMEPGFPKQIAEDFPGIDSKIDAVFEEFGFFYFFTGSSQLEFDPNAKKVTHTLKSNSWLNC
# MMP-12, sequence (P39900 106-470, species assumed): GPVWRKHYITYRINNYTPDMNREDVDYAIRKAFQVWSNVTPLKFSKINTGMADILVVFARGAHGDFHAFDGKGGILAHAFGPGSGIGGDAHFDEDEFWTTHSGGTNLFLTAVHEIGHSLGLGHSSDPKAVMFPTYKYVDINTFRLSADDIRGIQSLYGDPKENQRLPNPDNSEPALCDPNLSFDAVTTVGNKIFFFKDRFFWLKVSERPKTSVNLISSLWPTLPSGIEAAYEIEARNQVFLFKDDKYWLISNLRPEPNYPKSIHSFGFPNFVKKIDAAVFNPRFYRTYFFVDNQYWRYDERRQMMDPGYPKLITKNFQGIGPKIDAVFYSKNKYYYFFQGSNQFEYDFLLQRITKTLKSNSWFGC
compound,measurement,setting,value
"[2H]C([2H])([2H])c1ccc(C#Cc2ccc(S(=O)(=O)N[C@H](Cc3c[nH]c4ccccc34)C(=O)O)s2)cc1 [Compound 118, (R)-3-(1H-Indol-3-yl)-2-[5-(4-trideuteromethyl-phenylethynyl)-thiophene-2-sulfonylamino]-propionic acid-(D3, 98%)]",% Mean Remaining Parent with NADPH (%),[1]; with NADPH,85%
same,% Mean Remaining Parent without NADPH (%),[1]; without NADPH (control),91%
same,"Paw withdrawal threshold, mean, Day 5",[2]; i.t. 10 μl/mouse daily day 1-6,0.320 grams
same,"Paw withdrawal threshold, mean, Day 7",[2]; i.t. 10 μl/mouse daily day 1-6,1.024 grams
same,"Paw withdrawal threshold, mean, Day 1","[2]; i.t. 10 μl/mouse daily day 1-6, testing 2 hr after first i.t. injection",0.321 grams
same,Reversal of allodynia,"[2]; i.t. administration, as compared to vehicle and compound #5",almost complete reversal of allodynia
same,"Paw withdrawal threshold, mean, Day 0 Postoperative Baseline","[2]; i.t. study, post operative injury baseline, before treatment",0.077 grams
same,"Paw withdrawal threshold, mean, Day(-2) Pre-operative Baseline","[2]; i.t. study, testing prior to SNL injury, before treatment",1.268 grams
same,"Paw withdrawal threshold, mean, Day 1",[3]; [5],0.170 grams
same,"Paw withdrawal threshold, mean, Day 2",[3]; [5],0.350 grams
same,"Paw withdrawal threshold, mean, Day 5",[3]; [5],1.470 grams
same,"Paw withdrawal threshold, mean, Day 6",[3]; [5],0.867 grams
same,"Paw withdrawal threshold, mean, Day 7",[3]; [5],0.250 grams
same,Reversal of mechanical allodynia,"[3]; i.p. administration, by day 5",complete reversal of mechanical alodynia
same,"Paw withdrawal threshold, mean, Day 0 Postoperative Baseline","[3]; i.p. study, baseline before treatment",0.096 grams
CNC(=O)[C@H](Cc1c[nH]c2ccccc12)NC(=O)[C@@H](CC(=O)NO)CC(C)C [GM6001],Effect on mechanical nociception,mechanical nociception,attenuate mechanical nociception
CNC(=O)[C@@H](NC(=O)[C@H](CC(C)C)[C@H](O)C(=O)NO)C(C)(C)C [Marimastat],Musculoskeletal toxicities,humans,"time-dependent and dose-dependent musculoskeletal toxicities (arthralgia, myalgia, tendinitis)"
CCOCOC[C@H](C[C@H](C)C(=O)NO)NC(=O)c1ccc(Oc2ccccc2)cc1 [ONO-4817],Ki,MMP-12,0.45 nM
same,Ki,MMP-2,0.73 nM
same,Ki,MMP-8,1.1 nM
same,Ki,MMP-13,1.1 nM
same,Ki,MMP-9,2.1 nM
same,Ki,MMP-3,42 nM
same,Ki,MMP-7,2500 nM
same,Effect on the analgesic effect of intrathecal MMP-2 (Phase I agitation behavior),rat formalin test; MMP-2 injected intrathecally,antagonized
same,Effect on the rat formalin test when given alone,rat formalin test; inhibitor given alone,no affect
TIMP-1: endogenous matrix metalloproteinase inhibitor,Effect on neuropathic pain in the SNL model,[4],suppressed neuropathic pain
